“And” between values parts separate entries of the source, which are not always exact repeats. Identical values can stand only once.
What was measured:
[1] = system: K. pneumoniae strain KKBO-1; assay: In vitro selection of resistant mutants on peptide-containing MHB agarose; assay type: cell-based, Klebsiella pneumoniae; details: KKBO-1, same experimental conditions
Experimental: (§1) Tests were performed by plating cells on SET-M33L- or colistin-containing MHB.
Selection was performed on an MHB-based selection medium containing 1% low electro-osmosis agarose as solidifying agent and 11.2 μM SET-M33L (64 μg/mL). Agarose was preferred to agar as solidifying agent due to the observed loss of antimicrobial activity of SET-M33L in selection media solidified with the latter, possibly due to the charged nature of agar. Klebsiella pneumoniae KKBO-1 strain was grown in MHB at 37 °C to OD600 0.35 and up to 5 × 10^9 colony forming units (CFU) were spread on Petri dishes containing 20 ml of the selection medium. Plates were incubated for 16–18 h at 37 °C. Colistin-containing selection medium (equimolar concentration with respect to SET-M33L) was used as control for the selection of colistin-resistant mutants. Experiments were performed in triplicate.

[2] = system: K. pneumoniae strain KKBO-1; assay type: cell-based, Klebsiella pneumoniae; details: K. pneumoniae KKBO-1
Experimental: as §1

[3] = system: BALB/c mice; assay: Acute toxicity in mice, single i.v. dose; assay type: in vivo, mouse; details: for mortality: single i.v. dose 10 mg/Kg
Experimental: As preliminary toxicity evaluation we first compared the acute toxicity of SET-M33L and SET-M33L-PEG with that of colistin. Animals (10 BALB/c mice/group) were injected i.v. with different amounts of SET-M33L, SET-M33L-PEG or colistin, in single dose, in the range 5–40 mg/kg (Fig. 4), and were monitored for 4 days after inoculation of the peptide. […] At 40 mg/Kg SET-M33L and SET-M33L-PEG produced similar toxicity profiles with strong signs of toxicity and 90–100% mortality after 96 hours. Colistin produced strong signs of toxicity already at 10 mg/Kg: 50% mortality immediately after inoculation and 70% mortality after 24 hours. Colistin induced sudden death in 100% of mice at 20 and 40 mg/Kg.
Mice were treated by a single i.v. administration of different amounts (40, 20, 10, 5 mg/Kg) of SET-M33L, SET-M33L-PEG or colistin sulfate (Sigma-Aldrich, C4461). Signs of toxicity were checked four times a day by visual inspection. A toxicity score was assigned for the following signs: wiry coat and poor motility = mild signs; very wiry coat, abundant lachrymation and poor motility even under stimulation = manifest signs. Animals were monitored for 4 days after inoculation of the peptide. Mice were weighed every day from arrival to the last day of the experiment. Moribund animals were killed humanely to avoid unnecessary distress.

[4] = system: Pseudomonas aeruginosa clinical isolates; assay: MIC by standard microdilution, clinical isolates of Pseudomonas aeruginosa; assay type: cell-based
Experimental: Minimum inhibitory concentrations (MICs) of SET-M33L were determined against 76 clinical isolates of Pseudomonas aeruginosa and 73 clinical isolates of Klebsiella pneumoniae. The isolates were selected on the basis of their resistance phenotypes and major antibiotic resistance determinants, including resistance to colistin and carriage of carbapenemase-encoding genes (Table 1 and supplemental Tables S1 and S2).
MIC values were determined against a large collection of clinical isolates. Most isolates were collected during routine susceptibility testing procedures at the Clinical Microbiology Unit of Careggi University Hospital in Florence, while specific isolates were selected according to their phenotype or genotype (e.g. carriage of carbapenemase-encoding genes, inclusion in epidemic bacterial clones, resistance to colistin) from a collection of isolates already available at Department of Medical Biotechnologies, University of Siena. Detailed features of each strain, including relevant resistance phenotypes and genotypes were reported in supplemental Tables S1 and S2. MICs were determined in triplicate using a standard microdilution assay according to the guidelines of the Clinical and Laboratory Standards Institute[34]. SET-M33L was assayed using concentrations in the range 0.09–11.2 μM (0.5–64 μg/mL); testing was performed using a bacterial inoculum of 5 × 10^4 CFU/well prepared in cation-supplemented Mueller-Hinton broth (MHB) (Becton Dickinson, Franklin Lakes, NJ, USA) in a final volume of 100 μl. Results were recorded after 18–20 h of incubation at 35 °C.

colistin sulfate
at least 500: times more prone to select resistant mutants than SET-M33L [1]
≤ 0.5 μg/mL and ≤ 0.4 μM: MIC ([4]; isolate SI_P39, CARB, β/I, ESC, FQ, AG, blaVIM) | MIC ([4]; isolate SI_P40, phenotype none) | MIC ([4]; isolate SI_P41, CARB, β/I, ESC, FQ, AG) | MIC ([4]; isolate SI_P42, phenotype none) | MIC ([4]; isolate SI_P44, CARB, ESC, FQ, AG) | MIC ([4]; isolate SI_P45, phenotype none) | MIC ([4]; isolate SI_P46, phenotype none) | MIC ([4]; isolate SI_P47, phenotype none) | MIC ([4]; isolate SI_P48, phenotype none) | MIC ([4]; isolate SI_P49, CARB, β/I, ESC, FQ, AG) | MIC ([4]; isolate SI_P50, phenotype none) | MIC ([4]; isolate SI_P51, CARB, β/I, ESC, FQ, AG) | MIC ([4]; isolate SI_P52, CARB, AG) | MIC ([4]; isolate SI_P53, CARB, β/I, ESC, FQ) | MIC ([4]; isolate SI_P54, CARB, β/I, FQ, AG) | MIC ([4]; isolate SI_P55, phenotype none) | MIC ([4]; isolate SI_P56, CARB) | MIC ([4]; isolate SI_P57, β/I) | MIC ([4]; isolate SI_P58, FQ, AG) | MIC ([4]; isolate SI_P59, β/I, ESC) | MIC ([4]; isolate SI_P61, CARB, β/I, ESC, FQ, AG, blaVIM) | MIC ([4]; isolate SI_P63, CARB, β/I, ESC, FQ, AG, blaVIM) | MIC ([4]; isolate SI_P64, CARB, β/I, ESC, FQ, AG) | MIC ([4]; isolate SI_P66, CARB, FQ) | MIC ([4]; isolate SI_P67, CARB, β/I, ESC, FQ, AG, blaVIM) | MIC ([4]; isolate SI_P68, phenotype none) | MIC ([4]; isolate SI_P70, CARB) | MIC ([4]; isolate SI_P71, phenotype none) | MIC ([4]; isolate SI_P73, β/I) | MIC ([4]; isolate SI_P74, phenotype none)
100%: sudden death ([3]; single i.v. dose 20 mg/Kg) | sudden death ([3]; single i.v. dose 40 mg/Kg)
2 µg/mL: MIC ([4]; isolate SI_P2, CARB, β/I, ESC, FQ, AG, blaVIM) | MIC ([4]; isolate SI_P3, phenotype none) | MIC ([4]; isolate SI_P6, phenotype none) | MIC ([4]; isolate SI_P11, CARB, β/I, ESC, FQ, AG) | MIC ([4]; isolate SI_P12, CARB, β/I, ESC, FQ) | MIC ([4]; isolate SI_P13, phenotype none) | MIC ([4]; isolate SI_P14, CARB) | MIC ([4]; isolate SI_P16, CARB, β/I, ESC, FQ, AG) | MIC ([4]; isolate SI_P19, phenotype none) | MIC ([4]; isolate SI_P35, CARB, β/I, ESC, FQ)
2 μg/mL and 1.5 μM: MIC ([4]; isolate SI_P60, CARB, β/I, ESC, FQ, AG, blaVIM) | MIC ([4]; isolate SI_P62, CARB, β/I, ESC, FQ, AG, blaVIM) | MIC ([4]; isolate SI_P65, CARB, β/I, ESC, FQ, AG) | MIC ([4]; isolate SI_P69, CARB) | MIC ([4]; isolate SI_P72, FQ, AG) | MIC ([4]; isolate SI_P75, CARB, β/I, ESC, FQ, AG, blaIMP)
0.15 µM: MIC [2]
50%: mortality ([3]; immediately after inoculation)
70%: mortality ([3]; after 24 hours)
1 μg/mL and 0.7 μM: MIC ([4]; isolate SI_P76, CARB, β/I, ESC, FQ, AG, blaIMP)
≤ 0.5 µg/mL: MIC ([4]; isolate SI_P1, phenotype none) | MIC ([4]; isolate SI_P4, CARB, β/I, ESC, FQ, AG) | MIC ([4]; isolate SI_P5, CARB, ESC, β/I, FQ, AG) | MIC ([4]; isolate SI_P7, CARB, β/I, ESC, FQ, AG) | MIC ([4]; isolate SI_P8, CARB, ESC, AG) | MIC ([4]; isolate SI_P9, CARB, β/I, ESC, FQ, AG) | MIC ([4]; isolate SI_P10, CARB, β/I, ESC, FQ, AG) | MIC ([4]; isolate SI_P15, CARB, β/I, ESC, FQ, AG) | MIC ([4]; isolate SI_P17, CARB, β/I, ESC, FQ, AG, blaVIM) | MIC ([4]; isolate SI_P20, phenotype none) | MIC ([4]; isolate SI_P22, phenotype none) | MIC ([4]; isolate SI_P23, phenotype none) | MIC ([4]; isolate SI_P24, phenotype none) | MIC ([4]; isolate SI_P25, AG) | MIC ([4]; isolate SI_P26, phenotype none) | MIC ([4]; isolate SI_P27, CARB) | MIC ([4]; isolate SI_P28, phenotype none) | MIC ([4]; isolate SI_P29, phenotype none) | MIC ([4]; isolate SI_P30, phenotype none) | MIC ([4]; isolate SI_P31, phenotype none) | MIC ([4]; isolate SI_P32, phenotype none) | MIC ([4]; isolate SI_P33, CARB, β/I, ESC, FQ) | MIC ([4]; isolate SI_P34, CARB, β/I) | MIC ([4]; isolate SI_P36, CARB, AG) | MIC ([4]; isolate SI_P37, CARB, β/I, ESC, FQ, AG) | MIC ([4]; isolate SI_P38, CARB, β/I, ESC, FQ, AG, blaVIM)
≤ 0.4 μM and ≤ 0.5 μg/mL: MIC ([4]; isolate SI_P43, FQ)
1 µg/mL: MIC ([4]; isolate SI_P18, phenotype none) | MIC ([4]; isolate SI_P21, FQ, AG)

Reference: PMC4864329, “In vitro and in vivo efficacy, toxicity, bio-distribution and resistance selection of a novel antibacterial drug candidate” (Scientific Reports, 2016)
